Converted amounts (≈) assume the structure as drawn. Counter-ions that a name gives are not always drawn.
What was measured:
[1] = system: hepatocarcinoma cell line (HepG2); assay: Cytotoxic activity, antiproliferative SRB assay, HepG2; assay type: cell-based, human; conditions: for IC50: Homo sapiens, HepG2, mean ± SEM, n = 3; for IC50 / Cytotoxicity against HepG2 (in words): SRB assay; for Selective index (SI), HepG2: IC50 of non-cancerous cells (HaCaT) / IC50 of HepG2
Protocol: (§1) Hepatocellular carcinoma (HepG2; ATTC No. HB-8065) was cultured in Minimum Essential Media (MEM) supplemented with 10% heated-inactivated fetal bovine serum (FBS) and 1% penicillin–streptomycin (P/S). Cholangiocarcinoma cell line (KKU-M156) was cultured in HAM's F12 supplemented with 10% FBS, 1% P/S, and 12.5 mM HEPES. In addition, one non-cancerous human keratinocyte cell line (HaCaT; No. 300493-SF) was cultured in Dulbecco's Modified Eagle Medium (DMEM) supplemented with 10% FBS and 1% P/S [13].
(§2) This assay followed the previously described protocol. The various concentrations (1, 10, 50, and 100 µg/mL) of the crude extracts were investigated against two human cancer cell lines and one non-cancerous cell line. The cell lines were washed with PBS and the cells were detached with 0.025% trypsin–EDTA to make a single cell suspension. A 5 mL medium was then added to the flask to stop the trypsin–EDTA activity. The viable cells were counted by trypan blue exclusion in a haemocytometer. A single-cell suspensions density of HepG2, KKU-M156, and HaCaT were diluted with each medium to give optimal densities of 2 × 10^3, 3 × 10^3, and 8 × 10^3 cells/well, respectively. The 100 µL/well of these cell suspensions were seeded in 96-well plates and incubated at 37 °C with 5% CO2 at 95% humidity for 24 h. Then, 100 µL of a sample solution was added to each well. The control was the medium mixed with 2% DMSO. The 96-well plates were incubated at 37 °C with 5% CO2 at 95% humidity for 72 h. The mixture in the well was removed and washed with 200 µL fresh medium. The 96-well plate was further incubated for 72 h, then the cell in 96-well plates was fixed with 40%TCA and washed with water five times. Finally, the fixed cell in the 96-well plate was strained with Sulforhodamine B sodium salt and the percentage of inhibition of cell growth was measured colorimetrically using the SRB assay. The herbal extract and pure compounds were considered to have potent cytotoxicity if the IC50 values were ≤ 20 and ≤ 4 µg/mL, respectively. The % inhibition of cell growth was calculated by the equation shown below, and the IC50 values were calculated using the Prism program.
(§3) %Inhibitionofcellgrowth=MeanofODcontrol-MeanofODsample÷[…]×100 where: OD control = OD of medium with 2% of DMSO and OD sample = OD of crude extract.
(§4) SelectivityindexSI=IC50ofnon-cancerouscellline÷IC50ofcancercellline

[2] = system: cholangiocarcinoma cell line (KKU-M156); assay: Cytotoxic activity, antiproliferative SRB assay, KKU-M156; assay type: cell-based, human; conditions: for IC50: Homo sapiens, KKU-M156, mean ± SEM, n = 3; for IC50 / Cytotoxicity against KKU-M156 (in words): SRB assay; for Selective index (SI), KKU-M156: IC50 of non-cancerous cells (HaCaT) / IC50 of KKU-M156
Protocol: as §1, §2, §3, §4

[3] = system: human keratinocyte cell line (HaCaT); assay: Cytotoxic activity, antiproliferative SRB assay, non-cancerous HaCaT; assay type: cell-based; conditions: mean ± SEM, n = 3
Protocol: as §1, §2, §3

TNF-α production = assay: Inhibition of LPS-induced TNF-α production in RAW 264.7 (ELISA); assay type: cell-based, murine; conditions: Mus musculus, RAW264.7, LPS-induced RAW 264.7, n = 3
Protocol: The tumor necrosis factor-alpha (TNF-α) is the principal mediator of inflammation in response to gram-negative bacteria. It is mainly produced by LPS-activated mononuclear phagocytes. The TNF- α ELISA can quantify TNF-α in the supernatant of cell culture medium. The assay was carried out using the TNF-alpha ELISA kit (Thermo Fisher® scientific, USA). The murine macrophage cell line (RAW 264.7) was cultured in DMEM medium containing 10% heat-inactivated FBS, 10^4 µg/mL P/S. Firstly, the viable cells were counted using trypan blue exclusion in a haemocytometer. The single cell suspension of murine macrophage cell line was diluted with the medium to provide an optimal density of 10^5. The cell suspension was seeded, in a 100 µL/well, in 96-well plates and incubated at 37 °C with 5% CO2 atmosphere at 95% humidity for 24 h. […] Then, the test sample was added and incubated for 24 h. The control included 2% DMSO solution mixed with the medium, in place of the test samples in the analyses. This protocol was followed according to TNF-α ELISA kit (Thermo Fisher® scientific, USA). […] The concentrations of TNF- α in the wells were measured with a microplate reader at 450 nm. The % inhibition of TNF-α production was calculated using the equation below, and the IC50 values were calculated using the Prism program. […]

[4] = %cytotoxicity reported with the TNF-α assay; assay type: cell-based, murine; conditions: mouse, RAW 264.7 cells, n = 3, read-out: [%cytotoxicity] at conc. 100 µg/mL (converted)
Protocol: Table 7 Anti-inflammatory on LPS-induced tumor necrosis factor-alpha production of D.cochinchinensis and PSD remedy | column: Inhibition of TNF-α production / %Inhibition and [%cytotoxicity] at conc. 100 µg/mL

Row | Compound | IC50 [1] [µg/mL] | Selective index (SI), HepG2 [1] | Cytotoxicity against HepG2 (in words) [1] | IC50 [2] [µg/mL] | Selective index (SI), KKU-M156 [2] | Cytotoxicity against KKU-M156 (in words) [2] | IC50 [3] [µg/mL] | inhibition at 100 µg/mL (TNF-α production; 100 µg/mL, read-out: %Inhibition of TNF-α production at conc. 100 µg/mL) [%] | IC50 (TNF-α production) [µg/mL] | cytotoxicity at 100 µg/mL [4] [%]
1 | COc1cc(OC)c(CCC(=O)c2ccc(O)cc2)c(OC)c1 [Compound 1, 1-(4-hydroxyphenyl)-3-(2,4,6-trimethoxyphenyl)propan-1-one] | 20 ± 0.46 (≈ 63.3 µM) | 4.3 | moderate cytotoxicity | 21.3 ± 3.17 (≈ 67.2 µM) | 4.1 | moderate cytotoxicity | 86.1 ± 2.13 (≈ 272 µM) |  |  | 
2 | COc1ccc(CCC(=O)c2ccc(O)cc2)c(OC)c1 [Compound 2] | 20.7 ± 0.49 (≈ 72.3 µM) | 3.2 | moderate cytotoxicity | 33.2 ± 2.1 (≈ 116 µM) | 2.0 | moderate cytotoxicity | 66 ± 0.68 (≈ 231 µM) |  |  | 
3 | CC[C@]1(O)C[C@H]2CN(CCc3c([nH]c4ccccc34)[C@@](C(=O)OC)(c3cc4c(cc3OC)N(C=O)[C@H]3[C@@](O)(C(=O)OC)[C@H](OC(C)=O)[C@]5(CC)C=CCN6CC[C@]43[C@@H]65)C2)C1 [Vincristine sulfate, reference compound] | 0.012 ± 0.0005 | 0.00058 |  | 0.0026 ± 0.001 |  |  | 7e-06 |  |  | 
4 | CC(=O)Nc1ccc(O)cc1 [Acetaminophen] |  |  |  |  |  |  |  | 18.7 ± 1.93 | > 100 | 59.2
5 | COc1ccc(C[C@]2(O)COc3cc(O)cc(O)c3C2=O)cc1 [Compound 3, (3S)-3,5,7-trihydroxy-3-[(4-methoxyphenyl)methyl]-2H-chromen-4-one] | 25.8 ± 1.56 (≈ 81.4 µM) | 1.8 | moderate cytotoxicity | 7.12 ± 0.56 (≈ 22.5 µM) | 6.5 | moderate cytotoxicity | 46.5 ± 0.88 (≈ 147 µM) |  |  | 
